How the values were obtained:
Test in all cases: stopped-flow CO2 hydrase assay
Assay type in all cases: biochemical
[1] = target: T1, hCA IX (Homo sapiens, UniProt Q16790)
T1 construct: gene CA9; recombinant, obtained as reported earlier
Description: stopped-flow CO2 hydrase assay on hCA IX

[2] = target: T2, hCA I (Homo sapiens, UniProt P00915)
T2 construct: gene CA1; recombinant, obtained as reported earlier; cytosolic isoform
Description: stopped-flow CO2 hydrase assay on hCA I

[3] = target: T3, hCA II (Homo sapiens, UniProt P00918)
T3 construct: gene CA2; recombinant, obtained as reported earlier; cytosolic isoform
Description: stopped-flow CO2 hydrase assay on hCA II

[4] = target: T4, hCA VII (Homo sapiens, UniProt P43166)
T4 construct: gene CA7; recombinant, obtained as reported earlier; cytosolic isoform
T4 sequence (P43166 whole entry, canonical isoform): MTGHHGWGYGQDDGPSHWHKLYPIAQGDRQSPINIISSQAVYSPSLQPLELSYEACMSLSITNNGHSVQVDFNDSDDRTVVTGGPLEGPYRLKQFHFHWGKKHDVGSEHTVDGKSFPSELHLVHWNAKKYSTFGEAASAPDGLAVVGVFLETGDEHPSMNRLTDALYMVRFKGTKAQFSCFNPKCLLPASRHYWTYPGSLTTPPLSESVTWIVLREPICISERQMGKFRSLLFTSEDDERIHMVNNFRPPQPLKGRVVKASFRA
Description: stopped-flow CO2 hydrase assay on hCA VII

T2 sequence (P00915 2-261): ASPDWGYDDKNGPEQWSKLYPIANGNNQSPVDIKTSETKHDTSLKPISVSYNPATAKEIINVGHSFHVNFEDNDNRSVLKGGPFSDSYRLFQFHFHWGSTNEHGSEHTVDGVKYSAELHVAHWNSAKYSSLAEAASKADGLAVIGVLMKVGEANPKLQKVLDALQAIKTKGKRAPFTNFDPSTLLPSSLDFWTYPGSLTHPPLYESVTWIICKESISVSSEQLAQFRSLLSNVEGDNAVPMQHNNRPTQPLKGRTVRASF

CCCCOc1ccc(NN=Nc2cccc(S(N)(=O)=O)c2)cc1 [4d, 3–(3-(4-butoxyphenyl)triaz-1-en-1-yl) benzenesulfonamide]
Ki [1]: 7430 ± 216 nM | Ki [2]: 618 ± 40 nM | Ki [3]: 519 ± 39 nM | Ki [4]: 5870 ± 314 nM

NS(=O)(=O)c1cccc(N=NNc2ccc(Cl)c(Cl)c2)c1 [4h, 3–(3-(3,4-dichlorophenyl)triaz-1-en-1-yl)benzenesulfonamide]
Ki [1]: 9270 ± 451 nM | Ki [2]: 8370 ± 601 nM | Ki [3]: 9190 ± 504 nM | Ki [4]: 7830 ± 418 nM

NS(=O)(=O)c1cccc(/N=N/Nc2ccc(F)cc2)c1 [4a, 3–(3-(4-fluorophenyl)triaz-1-en-1-yl) benzenesulfonamide]
Ki [1]: 8050 ± 126 nM | Ki [2]: 365 ± 15 nM | Ki [3]: 858 ± 43 nM | Ki [4]: 9480 ± 348 nM

N#Cc1ccc(NN=Nc2cccc(S(N)(=O)=O)c2)cc1 [4c, 3–(3-(4-cyanophenyl)triaz-1-en-1-yl) benzenesulfonamide]
Ki [1]: 8960 ± 348 nM | Ki [2]: 501 ± 31 nM | Ki [3]: 605 ± 34 nM | Ki [4]: 7900 ± 456 nM

COc1ccc(/N=N/Nc2cccc(S(N)(=O)=O)c2)cc1OC [4g, 3–(3-(3,4-dimethoxyphenyl)triaz-1-en-1-yl)benzenesulfonamide]
Ki [1]: 84.9 ± 4.5 nM | Ki [2]: 3850 ± 179 nM | Ki [3]: 6460 ± 310 nM | Ki [4]: 2560 ± 129 nM

COc1ccc(/N=N/Nc2cccc(S(N)(=O)=O)c2)cc1 [4e, 3–(3-(4-methoxyphenyl)triaz-1-en-1-yl) benzenesulfonamide]
Ki [1]: 7230 ± 159 nM | Ki [2]: 416 ± 32 nM | Ki [3]: 877 ± 62 nM | Ki [4]: 5760 ± 324 nM

NS(=O)(=O)c1cccc(N/N=N/c2ccc(C(=O)O)cc2)c1 [4b, 4–(3-(3-sulfamoylphenyl)triaz-2-en-1-yl) benzoic acide]
Ki [1]: 835 ± 47 nM | Ki [2]: 92.3 ± 7.1 nM | Ki [3]: 68.7 ± 5.1 nM | Ki [4]: 967 ± 54 nM

Cc1cc(C)cc(NN=Nc2cccc(S(N)(=O)=O)c2)c1 [4f, 3–(3-(3,5-dimethylphenyl)triaz-1-en-1-yl)benzenesulfonamide]
Ki [1]: 50.8 ± 3.6 nM | Ki [2]: 277 ± 18 nM | Ki [3]: 4.3 ± 0.2 nM | Ki [4]: 15.6 ± 0.9 nM
